The results in this text go back to US7767674B2, “Kinase inhibitors” (Eli Lilly and Company, priority 2004, dated 2010).

For orientation: IC50 means the midpoint of a concentration-inhibition curve. Usually ED50 stands for the midpoint of the dose-response relation.

One test has as its target p38 kinase enzyme (Homo sapiens, UniProt Q16539). Nature of the test: Inhibition of p38 kinase (33P-ATP, EGF peptide 661-681 substrate). It counts as biochemical. To be noted: 33P-ATP assay, 40 min at 30° C. The method, then: The kinase buffer solution is prepared by combining 2.5 mL 1M Tris-HCl (pH 7.5), 0.1 mL 1M dithiothreitol, 1.0 mL 1M magnesium chloride, and 300 μL 1% Triton X-100 and diluting to 100 mL with water. 84 mL of this kinase buffer solution is combined with 16 mL DMSO to prepare the 16% DMSO solution.
The 200 μM ATP solution is prepared by adding 102.6 μL 10 mM aqueous ATP, 25 μL ^33P-ATP, and 163.5 μL of 4 mM aqueous Epidermal Growth Factor Peptide 661-681 (Biomol, Catalog #P-121) in 5 mL kinase buffer solution.
The p38 kinase enzyme solution is prepared by dissolving 9.5 μL concentrated enzyme solution (250 ng p38 enzyme/μL kinase buffer solution) in 1536 μL kinase buffer solution.
An 80 μM solution of each test compound and control compound are prepared by dissolving 2 μL of a 10 mM stock solution of the respective compounds in dimethylsulfoxide in 248 μL of the 16% DMSO solution in a Costar 96-well microtiter plate. The plate is placed onto the Tecan Genesis automated liquid handler for 1:3 serial dilutions.
10 μL of serially diluted compound is placed with a Beckman Multimek 96-well automated liquid handler to the assay plate. 20 μL of 200 μM ATP solution is added with a Titertek Multidrop 8-channel liquid handler. 10 μL of p38 kinase enzyme solution is transferred to the assay plate using the Multimek. The mixture is allowed to react for 40 min at 30° C. and then the reaction is stopped by adding 60 μL of freshly prepared 5% glacial AcOH with Multidrop. 80 μL of this solution is transferred to an “MAPH” plate using the Multimek. The plates are allowed to set for 30 min at room temperature and then washed/aspirated on the Titertek MAP extractor with freshly prepared 0.5% glacial AcOH (1×300 μL, 2×200 μL). […] The plates are allowed to sit for 30 min and counted on a PE/Wallac Microbeta Trilux scintillation counter for ^33P-isotope.
All exemplified compounds are initially tested at 10 concentrations (20 μM-1 nM using 1:3 serial dilutions). […] IC50 values are calculated (IDBS ActivityBase software) for each compound using non-linear regression. […]

Test [1] relates to TNF-α in synovial lavage fluid. Put plainly: Effect on intra-articular LPS induced TNF-α, rat ankle synovial lavage fluid. The format is in vivo. To be noted: oral, female Lewis rats, intra-articular LPS 10 μg one hour after compound, lavage after two hours, read-out: ED50, inhibition of TNF-α synthesis in synovial lavage fluid. The method, then: Intra-articular injection of LPS into rat ankles induces the synthesis of TNF-α, which can be measured in synovial lavage fluid. High levels of TNF-α are detectable within 2 hours. Since the joint is the site where arthritis develops, this model can rapidly determine whether an orally administered compound has an effect on an inflammatory response in the synovium.
Six female Lewis rats (150-200 g) are place in each treatment group. The animals are given vehicle (1% NaCarboxymethylcellulose-0.25% Tween 80) or test compound (1 mg/kg, 3 mg/kg, 10 mg/kg, and 30 mg/kg) orally. One hour later, 10 μl LPS (10 μg) is administered intra-articularly into the right ankle of each rat, while the left ankle receives 10 μL of saline. After two hours, each ankle is lavaged with 100 μL of saline. The lavage is collected and stored at −80° C.
TNF-α is measured with a commercially available ELISA kit (R&D, RTA00). Treatment with Example 100 produced a dose response inhibition of TNF-α synthesis, as measured in the synovial lavage fluid with ED50=30 mg/kg.

The subject of test [2] is TNF-α production in mouse peritoneal macrophages. Put plainly: Inhibition of TNF-α in vitro, LPS/interferon-γ stimulated mouse peritoneal macrophages, Luminex detection. The format is cell-based. The conditions noted are these: Peritoneal macrophage, LPS 50 ng/mL + interferon-γ 10 U/mL, 18 hr, read-out: IC50, suppression of TNF-α in vitro. The method, then:
1 mL thioglycolate broth (5.0 g yeast extract, 15.0 g casitone or trypticase, 5.0 g dextrose, 2.5 g sodium chloride, 0.75 g L-cystine, 0.5 g sodium thioglycolate, 1.0 mg resazurin, and 0.75 g agar in 1.0 L distilled water) are injected into the peritoneal cavity of Balb/C female mice. At day 4 or 5 post-injection the mice are sacrificed and then injected i.p. with 4 mL RPMI-1640 medium (BioWhittaker) and the peritoneal macrophages are withdrawn by syringe. Mouse peritoneal microphages are counted with a hemocytometer and adjusted to 5×10^5 cells/well in 96-well plates in RPMI-1640 medium with 10% fetal bovine serum. 200 μL/well is plated in 96-well plates and the cells allowed to settle and adhere to the bottom of the well for at least 3 hr. The test compound or standard p38 kinase inhibitor is pre-treated using a series of 8 concentrations for 1 hr at 37° C. (20 μL/well). The cells are treated with a mixture of 50 ng/mL lipopolysaccharide (LPS) and 10 U/mL interferon-γ for 18 hr at 37° C. (20 μL/well). The conditioned media is harvested and assayed for TNF-α production using the Luminex procedure. […] Standards and samples are read on a Luminex machine. These intensity readings are then converted to picogram/milliliter units based on a 12-point standard curve created in duplicate using a four-parameter logistic regression method (Bio-Plex Manager 2.0, Bio-Rad), and the IC50 calculated.

The subject of test [3] is TNFa-levels in the plasma. Put plainly: Inhibition of TNF in vivo, LPS-challenged mice, plasma TNFa by ELISA. To be noted: p.o., female Balb/c mice, LPS IP 400 ug/kg 1 hr after compound, plasma 1.5 hrs after LPS. The method, then:
Compounds are administered p.o. (30, 10, 3 and 1 mg/kg) to female Balb/c mice (6 mice/dose). 1 hr following compound administration at 4 doses (P.O. at volume of 0.1 mL/mouse; vehicle: 1% NaCMC/0.25% Tween-80 in water); mice are given an IP-injection of LPS at 400 ug/kg. 1.5 hrs after LPS challenging, mice are anesthetized with isoflurane and blood is taken via cardiac puncture. TNFa-levels in the plasma are determined using ELISA kit from R&D Systems and dose response ED50 is determined.

p38 kinase enzyme, sequence (Q16539 whole entry): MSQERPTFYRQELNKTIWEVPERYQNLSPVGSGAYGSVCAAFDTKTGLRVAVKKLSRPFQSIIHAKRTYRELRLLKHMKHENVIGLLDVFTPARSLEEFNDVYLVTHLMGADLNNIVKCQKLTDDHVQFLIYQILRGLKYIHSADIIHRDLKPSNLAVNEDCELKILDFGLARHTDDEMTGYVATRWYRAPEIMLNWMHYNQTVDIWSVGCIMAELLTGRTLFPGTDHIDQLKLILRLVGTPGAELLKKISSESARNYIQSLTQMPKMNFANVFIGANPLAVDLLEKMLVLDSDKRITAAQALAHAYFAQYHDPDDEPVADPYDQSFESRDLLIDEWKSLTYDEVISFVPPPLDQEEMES

As for `Cn1nc(C(C)(C)C)cc1NC(=O)Nc1cc(F)cc(OC2CCN(C(=O)C(C)(C)C)CC2)c1` [Example 70, 1-(5-tert-Butyl-2-methyl-2H-pyrazol-3-yl)-3-{3-[1-(2,2-dimethyl-propionyl)-piperidin-4-yloxy]-5-fluoro-phenyl}-urea], the IC50 at p38 kinase enzyme was found to be 19 nM.
For `Cn1nc(C(C)(C)C)cc1NC(=O)Nc1ccc(CN2CCN(C(=O)c3c(F)cccc3F)CC2)cc1` [Example 100], the ED50 in test [1] came to 30 mg/kg. For the same compound, the IC50 turned out to be 11 nM in test [2] and 10 nM at p38 kinase enzyme. Also, the “TMED50, suppression of TNF in vivo” value in test [3] was 2.4 mg/kg.
The compound `Cc1ccc(-n2nc(C(C)(C)C)cc2NC(=O)Nc2ccc(N3CCN(C(=O)C(C)(C)C)CC3)cc2)cc1` [Example 136] displayed an IC50 against p38 kinase enzyme of 91 nM.
